These compounds were tested against T1, Recombinant human JARID1B/KDM5B (Homo sapiens, UniProt Q9UGL1) (assay: LANCE Ultra TR-FRET demethylase assay with FLAG-tagged JARID1B). Conditions: 100 nM compound; 500 nM biotinylated H3K4me3 peptide substrate.
T1 construct: purchased Active Motif 31432; host or cells: Sf9 insect cells
Format: biochemical
Text: FLAG-tagged JARID1B (also known as KDM5B) protein was screened against more than 170 compounds. For this compound screening, LANCE Ultra time-resolved fluorescence resonance energy transfer (TR-FRET) assay was employed using an europoium (Eu)-labeled antibody that can specifically recognize mono- or dimethylated peptides (H3K4me2/1) and ULight-streptavidin (ULight-SA), a small molecule fluorescent dye. When irradiated at 340 nm, the energy from the Eu donor is transferred to the ULight acceptor dye which, in turn, emits light primarily at 665 nm. The ratio between the intensity of primary emission at 665 nm and that of secondary emission at 590 nm was used to quantify the level of lysine methylation. As JARID1B removes more methyl moieties from tri-methylated substrate peptides (H3K4me3), the ratio increases until the enzyme reaction is terminated. In case, therefore, the compounds disrupt the enzymatic activity completely, the ratio becomes equal to a background value.
Recombinant human JARID1B/KDM5B (accession number NP_006609) of molecular weight 179.9 KDa was expressed in Sf9 insect cells and contains an N-terminal FLAG tag. The enzyme was obtained from Active Motif (Catalog No. 31432). The tri-methylated histone substrate peptide of purity greater than 95% was a synthetic peptide in which the first 21 amino acids correspond to the human histone H3 sequence with three extra amino acids and a biotin motif (GGK-biotin) linked to the C-terminus [sequence: ART-K (Me3)-QTARKSTGGKAPRKQLA-GGK-biotin-OH], (AnaSpec, Fremont, Calif. Catalog. No. ANA-1413). The reference inhibitory compound tranylcypromine (or trans-2-phenylcyclopropylamine hydrochloride, also known as, 2-PCPA) was purchased from Sigma (St. Louis, Mo. Cat. no. P8511). ULight-labeled streptavidin (ULight-SA, Catalog no. TRF0102), Eu-W1024-labeled anti-methyl-Histone H3 Lysine 4 (H3K4me1-2) Antibody (Catalog no. TRF0402), and LANCE detection buffer 10× (Catalog no. CR97-100) were obtained from PerkinElmer (Montreal, Quebec, Canada). The TR-FRET experiments were carried out in white, low-volume 384-wellplates purchased from PerkinElmer (ProxiPlate-384 Plus, Catalog no. 6008280).
The TR-FRET signal was measured in the presence both of the bio-H3K4me3 peptide and FLAG-JARID1B by detecting any H3K4me2/1 peptide produced in the assay system. Assays using only the bio-H3K4me2 peptide were served as a positive control. Robust enzymatic progressions were observed by using JARID1B at concentrations ranging from 10 to 30 nM. In a typical TR-FRET experiment, JARID1B was pre-incubated with or without 20 uM, 1 uM, or 0.1 uM of test-compounds (containing 1% DMSO final) for […]. The enzymatic reactions were initiated by the addition of 500 nM biotinylated H3K4me3 peptide substrate plus 500 uM of 2-OG, 25 uM Fe(II) and 2 mM ascorbate. The reaction buffer also contained 50 mM Hepes (pH7.5), 0.01% (v/v) Tween 20, and 50 mM NaCl. The reaction mixture was incubated for […] at room temperature before reading on an EnVision plate reader (PerkinElmer, Waltham, Mass.).

T1 sequence (Q9UGL1 whole entry): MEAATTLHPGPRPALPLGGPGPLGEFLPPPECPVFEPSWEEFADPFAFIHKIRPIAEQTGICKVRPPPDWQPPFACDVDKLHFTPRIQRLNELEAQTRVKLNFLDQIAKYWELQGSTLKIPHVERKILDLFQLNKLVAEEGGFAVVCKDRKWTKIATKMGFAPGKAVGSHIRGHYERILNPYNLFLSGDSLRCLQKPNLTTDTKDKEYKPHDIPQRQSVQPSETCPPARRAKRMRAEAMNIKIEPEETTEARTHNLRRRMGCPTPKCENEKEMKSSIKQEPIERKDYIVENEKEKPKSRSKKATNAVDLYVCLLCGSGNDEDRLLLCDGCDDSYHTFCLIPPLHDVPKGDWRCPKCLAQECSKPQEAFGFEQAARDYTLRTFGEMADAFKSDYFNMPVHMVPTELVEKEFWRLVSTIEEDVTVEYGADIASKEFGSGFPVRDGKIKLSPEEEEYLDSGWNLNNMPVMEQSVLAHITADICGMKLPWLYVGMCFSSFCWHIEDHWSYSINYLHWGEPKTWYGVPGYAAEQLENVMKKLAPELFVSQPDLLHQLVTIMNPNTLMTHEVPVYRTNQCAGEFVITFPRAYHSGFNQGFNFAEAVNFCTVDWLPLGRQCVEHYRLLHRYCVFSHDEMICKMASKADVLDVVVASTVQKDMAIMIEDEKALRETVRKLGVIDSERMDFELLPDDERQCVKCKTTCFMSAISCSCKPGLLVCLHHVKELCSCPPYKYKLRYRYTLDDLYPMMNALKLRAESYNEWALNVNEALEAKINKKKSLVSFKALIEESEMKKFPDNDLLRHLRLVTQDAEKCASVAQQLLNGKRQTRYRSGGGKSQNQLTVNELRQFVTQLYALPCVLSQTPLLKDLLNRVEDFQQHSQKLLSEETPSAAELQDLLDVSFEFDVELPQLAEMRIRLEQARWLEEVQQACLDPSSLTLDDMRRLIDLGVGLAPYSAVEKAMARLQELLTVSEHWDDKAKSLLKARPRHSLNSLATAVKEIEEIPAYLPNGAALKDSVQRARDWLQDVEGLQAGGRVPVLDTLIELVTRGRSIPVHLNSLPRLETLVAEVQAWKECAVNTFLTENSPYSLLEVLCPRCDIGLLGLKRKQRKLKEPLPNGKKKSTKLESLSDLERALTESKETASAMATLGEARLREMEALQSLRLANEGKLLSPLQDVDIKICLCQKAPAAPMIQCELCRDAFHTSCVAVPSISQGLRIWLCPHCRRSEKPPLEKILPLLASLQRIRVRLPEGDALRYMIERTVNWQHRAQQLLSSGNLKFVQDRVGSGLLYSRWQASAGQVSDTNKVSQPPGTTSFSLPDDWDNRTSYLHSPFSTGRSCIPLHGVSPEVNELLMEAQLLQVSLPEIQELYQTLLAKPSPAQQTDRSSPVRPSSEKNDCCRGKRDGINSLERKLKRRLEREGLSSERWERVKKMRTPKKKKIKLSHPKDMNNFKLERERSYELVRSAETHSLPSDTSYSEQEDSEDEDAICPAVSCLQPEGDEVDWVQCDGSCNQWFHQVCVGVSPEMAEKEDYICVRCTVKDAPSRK

| inhibition at 0.1 µM [%] | SMILES |
| --- | --- |
| > 50 | CCN1CCC(CNCc2nccc3c(=O)[nH]c(COc4ccc(Cc5ccccc5)cc4)nc23)C1 (centres unmarked) [Example 142, 2-((4-benzylphenoxy)methyl)-8-((((1-ethylpyrrolidin-3-yl)methyl)amino)methyl)pyrido[3,4-d]pyrimidin-4(3H)-one] |
| 20 to 50 | O=c1[nH]c(COc2ccc(Cc3ccccc3)cc2)nc2c(CNCCCCN3CCCC3)nccc12 [Example 143, 2-((4-benzylphenoxy)methyl)-8-(((4-(pyrrolidin-1-yl)butyl)amino)methyl)pyrido[3,4-d]pyrimidin-4(3H)-one] |
| 20 to 50 | CCN1CCC[C@@H]1CNCc1nccc2c(=O)[nH]c(COc3ccc(Cc4ccccc4)cc3)nc12 [Example 145, (R)-2-((4-benzylphenoxy)methyl)-8-((((1-ethylpyrrolidin-2-yl)methyl)amino)methyl)pyrido[3,4-d]pyrimidin-4(3H)-one] |
| 20 to 50 | CCN1CCC[C@H]1CNCc1nccc2c(=O)[nH]c(COc3ccc(Cc4ccccc4)cc3)nc12 [Example 146, (S)-2-((4-benzylphenoxy)methyl)-8-((((1-ethylpyrrolidin-2-yl)methyl)amino)methyl)pyrido[3,4-d]pyrimidin-4(3H)-one] |
| > 50 | O=c1[nH]c(COc2ccc(Cc3ccccc3)cc2)nc2c(CNCC3CNC3)nccc12 [Example 147, 8-(((azetidin-3-ylmethyl)amino)methyl)-2-((4-benzylphenoxy)methyl)pyrido[3,4-d]pyrimidin-4(3H)-one] |
| 20 to 50 | O=c1[nH]c(COc2ccc(Cc3ccccc3)cc2)nc2c(CNC[C@H]3CCCO3)nccc12 [Example 148, (R)-2-((4-benzylphenoxy)methyl)-8-((((tetrahydrofuran-2-yl)methyl)amino)methyl)pyrido[3,4-d]pyrimidin-4(3H)-one] |
| > 50 | O=c1[nH]c(COc2ccc(Cc3ccccc3)cc2)nc2c(CNCC3CCOCC3)nccc12 [Example 149, 2-((4-benzylphenoxy)methyl)-8-((((tetrahydro-2H-pyran-4-yl)methyl)amino)methyl)pyrido[3,4-d]pyrimidin-4(3H)-one] |
| > 50 | O=c1[nH]c(COc2ccc(Cc3ccccc3)cc2)nc2c(CNC[C@H]3CCNC3)nccc12 [Example 150, (S)-2-((4-benzylphenoxy)methyl)-8-(((pyrrolidin-3-ylmethyl)amino)methyl)pyrido[3,4-d]pyrimidin-4(3H)-one] |
| 20 to 50 | O=c1[nH]c(COc2ccc(Cc3ccccc3)cc2)nc2c(CNC[C@@H]3CCNC3)nccc12 [Example 151, (R)-2-((4-benzylphenoxy)methyl)-8-(((pyrrolidin-3-ylmethyl)amino)methyl)pyrido[3,4-d]pyrimidin-4(3H)-one] |
| > 50 | CN1CCC(CNCc2nccc3c(=O)[nH]c(COc4ccc(Cc5ccccc5)cc4)nc23)CC1 [Example 152, 2-((4-benzylphenoxy)methyl)-8-((((1-methylpiperidin-4-yl)methyl)amino)methyl)pyrido[3,4-d]pyrimidin-4(3H)-one] |
| > 50 | O=c1[nH]c(COc2ccc(Cc3ccccc3)cc2)nc2c(CNC[C@H]3CCCNC3)nccc12 [Example 153, (S)-2-((4-benzylphenoxy)methyl)-8-(((piperidin-3-ylmethyl)amino)methyl)pyrido[3,4-d]pyrimidin-4(3H)-one] |
| > 50 | O=c1[nH]c(COc2ccc(Cc3ccccc3)cc2)nc2c(CNC[C@@H]3CCCNC3)nccc12 [Example 154, (R)-2-((4-benzylphenoxy)methyl)-8-(((piperidin-3-ylmethyl)amino)methyl)pyrido[3,4-d]pyrimidin-4(3H)-one] |
| 20 to 50 | N[C@H]1CC[C@H](NCc2nccc3c(=O)[nH]c(COc4ccc(Cc5ccccc5)cc4)nc23)CC1 [Example 155, 8-((((1r,4r)-4-aminocyclohexyl)amino)methyl)-2-((4-benzylphenoxy)methyl)pyrido[3,4-d]pyrimidin-4(3H)-one] |
| 20 to 50 | O=c1[nH]c(COc2ccc(Cc3ccccc3)cc2)nc2c(CNCCN3CCOCC3)nccc12 [Example 157, 2-((4-benzylphenoxy)methyl)-8-(((2-morpholinoethyl)amino)methyl)pyrido[3,4-d]pyrimidin-4(3H)-one] |
| > 50 | O=c1[nH]c(COc2ccc(F)c(Cl)c2)nc2c(CNC[C@H]3CCNC3)nccc12 [Example 158, (S)-2-((3-chloro-4-fluorophenoxy)methyl)-8-(((pyrrolidin-3-ylmethyl)amino)methyl)pyrido[3,4-d]pyrimidin-4(3H)-one] |
| > 50 | CN1CCC(CNCc2nccc3c(=O)[nH]c(COc4ccc(F)c(Cl)c4)nc23)C1 (centres unmarked) [Example 159, 2-((3-chloro-4-fluorophenoxy)methyl)-8-((((1-methylpyrrolidin-3-yl)methyl)amino)methyl)pyrido[3,4-d]pyrimidin-4(3H)-one] |
| > 50 | CN1CCC(CNCc2nccc3c(=O)[nH]c(COc4ccc(F)c(Cl)c4)nc23)CC1 [Example 160, 2-((3-chloro-4-fluorophenoxy)methyl)-8-((((1-methylpiperidin-4-yl)methyl)amino)methyl)pyrido[3,4-d]pyrimidin-4(3H)-one] |
| < 20 | O=c1[nH]c(COc2ccc(F)c(Cl)c2)nc2c(CNCC3CCOCC3)nccc12 [Example 161, 2-((3-chloro-4-fluorophenoxy)methyl)-8-((((tetrahydro-2H-pyran-4-yl)methyl)amino)methyl)pyrido[3,4-d]pyrimidin-4(3H)-one] |
| < 20 | O=c1[nH]c(COc2ccc(F)c(Cl)c2)nc2c(CNCC3CCCOC3)nccc12 (centres unmarked) [Example 162, 2-((3-chloro-4-fluorophenoxy)methyl)-8-((((tetrahydro-2H-pyran-3-yl)methyl)amino)methyl)pyrido[3,4-d]pyrimidin-4(3H)-one] |
| < 20 | O=c1[nH]c(COc2ccc(F)c(Cl)c2)nc2c(CNCC3CCOC3)nccc12 (centres unmarked) [Example 163, 2-((3-chloro-4-fluorophenoxy)methyl)-8-((((tetrahydrofuran-3-yl)methyl)amino)methyl)pyrido[3,4-d]pyrimidin-4(3H)-one] |
| 20 to 50 | O=c1[nH]c(COc2ccc(F)c(Cl)c2)nc2c(CNCCN3CCOCC3)nccc12 [Example 164, 2-((3-chloro-4-fluorophenoxy)methyl)-8-(((2-morpholinoethyl)amino)methyl)pyrido[3,4-d]pyrimidin-4(3H)-one] |
| > 50 | O=c1[nH]c(COc2ccc(F)c(Cl)c2)nc2c(CNCCCn3ccnc3)nccc12 [Example 165, 8-(((3-(1H-imidazol-1-yl)propyl)amino)methyl)-2-((3-chloro-4-fluorophenoxy)methyl)pyrido[3,4-d]pyrimidin-4(3H)-one] |
| 20 to 50 | Cc1cnc(CNCc2nccc3c(=O)[nH]c(COc4ccc(F)c(Cl)c4)nc23)cn1 [Example 166, 2-((3-chloro-4-fluorophenoxy)methyl)-8-((((5-methylpyrazin-2-yl)methyl)amino)methyl)pyrido[3,4-d]pyrimidin-4(3H)-one] |
| > 50 | CC(C)N1CCC(CNCc2nccc3c(=O)[nH]c(COc4ccc(F)c(Cl)c4)nc23)CC1 [Example 168, 2-((3-chloro-4-fluorophenoxy)methyl)-8-((((1-isopropylpiperidin-4-yl)methyl)amino)methyl)pyrido[3,4-d]pyrimidin-4(3H)-one] |
| > 50 | O=c1[nH]c(COc2ccc(F)c(Cl)c2)nc2c(CNCC3CCN(C4CCCC4)CC3)nccc12 [Example 169, 2-((3-chloro-4-fluorophenoxy)methyl)-8-((((1-cyclopentylpiperidin-4-yl)methyl)amino)methyl)pyrido[3,4-d]pyrimidin-4(3H)-one] |
| 20 to 50 | O=c1[nH]c(COc2ccc(F)c(Cl)c2)nc2c(CNCc3ccccn3)nccc12 [Example 170, 2-((3-chloro-4-fluorophenoxy)methyl)-8-(((pyridin-2-ylmethyl)amino)methyl)pyrido[3,4-d]pyrimidin-4(3H)-one] |
